Data taken from patent US7544707B2, “Bicyclic derivatives as PPAR modulators” (Eli Lilly and Company, priority 2003, dated 2009).

Row | melting point | SMILES
1 | 85 to 87 °C | Cc1cc(SC(C)c2cccc3c2cnn3-c2ccc(C(F)(F)F)cc2)ccc1OC(C)(C)C(=O)O (racemic) [Example 83, (+/−)-2-Methyl-2-(2-methyl-4-{1-[1-(4-trifluoromethylphenyl)-1H-indazol-4-yl]ethylsulfanyl}phenoxy)propionic Acid]
2 | 214 to 216 °C | CC(C)(Sc1ccc(OCc2cccc3cnn(-c4ccc(C(F)(F)F)cc4)c23)cc1)C(=O)O [Example 97, 2-Methyl-2-{4-[1-(4-trifluoromethylphenyl)-1H-indazol-7-ylmethoxy]phenylsulfanyl}propionic Acid]
3 | 140 to 142 °C | CC(C)(Oc1ccc(SCc2cccc3cn(-c4ccc(C(F)(F)F)cc4)nc23)cc1)C(=O)O [Example 36, 2-Methyl-2-{4-[2-(4-trifluoromethylphenyl)-2H-indazol-7-ylmethylsulfanyl]phenoxy}propionic Acid]
4 | 199 to 201 °C | CC(C)(Oc1ccc(OCc2ccc3cn(-c4ccc(C(F)(F)F)cc4)nc3c2)cc1)C(=O)O [Example 52, 2-Methyl-2-{4-[2-(4-trifluoromethylphenyl)-2H-indazol-6-ylmethoxy]phenoxy}propionic Acid]
5 | 176 to 178 °C | CC(C)(Oc1ccc(SCc2ccc3cn(-c4ccc(C(F)(F)F)cc4)nc3c2)cc1)C(=O)O [Example 54, 2-Methyl-2-{4-[2-(4-trifluoromethylphenyl)-2H-indazol-6-ylmethylsulfanyl]phenoxy}propionic Acid]
6 | 132 to 134 °C | Cc1cc(SCc2cccc3c2cnn3-c2ccc(C(F)(F)F)cc2)ccc1OCC(=O)O [Example 30, 2-Methyl-4-[1-(4-trifluoromethylphenyl)-1H-indazol-4-ylmethylsulfanyl]phenoxyacetic Acid]
7 | 144 to 146 °C | CC(Oc1ccc(OC(C)(C)C(=O)O)cc1)c1ccc2cn(-c3ccc(C(F)(F)F)cc3)nc2c1 (racemic) [Example 58, (+/−)-2-Methyl-2-(4-{1-[2-(4-trifluoromethylphenyl)-2H-indazol-6-yl]ethoxy}phenoxy)propionic Acid]
8 | 159 to 161 °C | CC(C)(Oc1ccc(SCc2ccc3nn(-c4ccc(C(F)(F)F)cc4)cc3c2)cc1)C(=O)O [Example 63, 2-Methyl-2-{4-[2-(4-trifluoromethylphenyl)-2H-indazol-5-ylmethylsulfanyl]phenoxy}propionic Acid]
9 | 99 to 102 °C | CC(Oc1ccc(OC(C)(C)C(=O)O)cc1)c1cccc2c1cnn2-c1ccc(C(F)(F)F)cc1 (racemic) [Example 85, (+/−)-2-Methyl-2-(4-{1-[1-(4-trifluoromethylphenyl)-1H-indazol-4-yl]ethoxy}phenoxy)propionic Acid]
10 | 130 to 132 °C | CC(Sc1ccc(OC(C)(C)C(=O)O)cc1)c1ccc2cn(-c3ccc(C(F)(F)F)cc3)nc2c1 (racemic) [Example 59, (+/−)-2-Methyl-2-(4-{1-[2-(4-trifluoromethylphenyl)-2H-indazol-6-yl]ethylsulfanyl}phenoxy)propionic Acid]
11 | 148 to 150 °C | CC(Sc1ccc(OC(C)(C)C(=O)O)cc1)c1cccc2nn(-c3ccc(C(F)(F)F)cc3)cc12 (racemic) [Example 73, (+/−)-2-Methyl-2-(4-{1-[2-(4-trifluoromethylphenyl)-2H-indazol-4-yl]ethylsulfanyl}phenoxy)propionic Acid]
12 | 152 to 154 °C | CC(Oc1ccc(OC(C)(C)C(=O)O)cc1)c1ccc2nn(-c3ccc(C(F)(F)F)cc3)cc2c1 (racemic) [Example 70, (+/−)-2-Methyl-2-(4-{1-[2-(4-trifluoromethylphenyl)-2H-indazol-5-yl]ethoxy}phenoxy)propionic Acid]
13 | 203 to 205 °C | CC(C)(Oc1ccc(OCc2ccc3nn(-c4ccc(C(F)(F)F)cc4)cc3c2)cc1)C(=O)O [Example 65, 2-Methyl-2-{4-[2-(4-trifluoromethylphenyl)-2H-indazol-5-ylmethoxy]phenoxy}propionic Acid]
14 | 128 to 130 °C | CC(C)(Oc1ccc(OCc2cccc3c2cnn3-c2ccc(C(F)(F)F)cc2)cc1)C(=O)O [Example 81, 2-Methyl-2-{4-[1-(4-trifluoromethylphenyl)-1H-indazol-4-ylmethoxy]phenoxy}propionic Acid]
15 | 130 to 132 °C | CC(Oc1ccc(OC(C)(C)C(=O)O)cc1)c1cccc2cn(-c3ccc(C(F)(F)F)cc3)nc12 (racemic) [Example 44, (+/−)-2-Methyl-2-(4-{1-[2-(4-trifluoromethylphenyl)-2H-indazol-7-yl]ethoxy}phenoxy)propionic Acid]

The next lines start with the compound.

Row | SMILES | melting point
16 | Cc1cc(SCc2cccc3cn(-c4ccc(C(F)(F)F)cc4)nc23)ccc1CCC(=O)O [Example 2, 3-{2-Methyl-4-[2-(4-trifluoromethylphenyl)-2H-indazol-7-ylmethylsulfanyl]phenyl}propionic Acid] | 88 to 90 °C
17 | CC(Oc1ccc(SC(C)(C)C(=O)O)cc1)c1cccc2cn(-c3ccc(C(F)(F)F)cc3)nc12 (racemic) [Example 43, (+/−)-2-Methyl-2-(4-{1-[2-(4-trifluoromethylphenyl)-2H-indazol-7-yl]ethoxy}phenylsulfanyl)propionic Acid] | 158 to 160 °C
18 | Cc1cc(SCc2cccc3cn(-c4ccc(C(F)(F)F)cc4)nc23)ccc1OC(C)(C)C(=O)O [Example 35, 2-Methyl-2-{2-methyl-4-[2-(4-trifluoromethylphenyl)-2H-indazol-7-ylmethylsulfanyl]phenoxy}propionic Acid] | 135 to 137 °C
19 | O=C(O)Cc1csc2cc(SCc3ccc4cn(-c5ccc(C(F)(F)F)cc5)nc4c3)ccc12 [Example 23, 6-[2-(4-Trifluoromethylphenyl)-2H-indazol-6-ylmethylsulfanyl]benzo[b]thiophen-3ylacetic Acid] | 194 to 196 °C
20 | Cc1cc(OC(C)c2cccc3cn(-c4ccc(C(F)(F)F)cc4)nc23)ccc1CCC(=O)O (racemic) [Example 12, (+/−)-3-(2-Methyl-4{1-[2-(4-trifluoromethylphenyl)-2H-indazol-7yl]ethoxy}phenyl)propionic Acid] | 66 to 68 °C
21 | CC(Oc1ccc(SC(C)(C)C(=O)O)cc1)c1cccc2nn(-c3ccc(C(F)(F)F)cc3)cc12 (racemic) [Example 76, (+/−)-2-Methyl-2-(4-{1-[2-(4-trifluoromethyl-phenyl)-2H-indazol-4-yl]ethoxy}phenylsulfanyl)propionic Acid] | 138 to 140 °C
22 | CCc1cc(SCc2cccc3nn(-c4ccc(C(F)(F)F)cc4)cc23)ccc1OCC(=O)O [Example 27, 2-Ethyl-4-[2-(4-trifluoromethylphenyl)-2H-indazol-4-ylmethylsufanyl]phenoxyacetic Acid] | 65 to 70 °C
23 | Cc1cc(OCc2ccc3cn(-c4ccc(C(F)(F)F)cc4)nc3c2)ccc1CCC(=O)O [Example 24, 3-{2-Methyl-4-[2-(4-trifluoromethylphenyl)-2H-indazol-6-ylmethoxy]phenyl}propionic Acid] | 181 to 183 °C
24 | Cc1cc(SCc2cccc3cn(-c4ccc(C(F)(F)F)cc4)nc23)ccc1OCC(=O)O [Example 1, 2-Methyl-4-[2-(4-trifluoromethylphenyl)-2H-indazol-7-ylmethylsulfanyl]phenoxyacetic Acid] | 79 to 81 °C
25 | Cc1cc(SCc2cccc3nn(-c4ccc(C(F)(F)F)cc4)cc23)ccc1CCC(=O)O [Example 28, 3-{2-Methyl-4-[2-(4-trifluoromethylphenyl)-2H-indazol-4-ylmethylsulfanyl]phenyl}propionic Acid] | 55 to 59 °C
26 | CCc1cc(SCc2cccc3cn(-c4ccc(C(F)(F)F)cc4)nc23)ccc1OCC(=O)O [Example 3, 2-Ethyl-4-[2-(4-trifluoromethylphenyl)-2H-indazol-7-ylmethylsulfanyl]phenoxyacetic Acid] | 159 to 161 °C
27 | Cc1cc(SCc2ccc3nn(-c4ccc(C(F)(F)F)cc4)cc3c2)ccc1OC(C)(C)C(=O)O [Example 64, 2-Methyl-2-{2-methyl-4-[2-(4-trifluoromethylphenyl)-2H-indazol-5-ylmethylsulfanyl]phenoxy}propionic Acid] | 143 to 145 °C
28 | CC(C)(Oc1ccc(OC(CCC(F)(F)F)c2cccc3c2cnn3-c2ccc(C(F)(F)F)cc2)cc1)C(=O)O (racemic) [Example 90, (+/−)-2-Methyl-2-(4-{4,4,4-trifluoro-1-[1-(4-trifluoromethylphenyl)-1H-indazol-4-yl]butoxy}phenoxy)propionic Acid] | 175 to 180 °C
29 | Cc1cc(SCc2ccc3cn(-c4ccc(C(F)(F)F)cc4)nc3c2)ccc1CCC(=O)O [Example 20, 3-{2-Methyl-4-[2-(4-trifluoromethylphenyl)-2H-indazol-6-ylmethylsulfanyl]phenyl}propionic Acid] | 130 to 132 °C
30 | CCc1cc(OC(C)c2cccc3cn(-c4ccc(C(F)(F)F)cc4)nc23)ccc1CCC(=O)O (racemic) [Example 13] | 61 to 63 °C
31 | Cc1cc(SCCc2cccc3cn(-c4ccc(C(F)(F)F)cc4)nc23)ccc1OC(C)(C)C(=O)O [Example 49, 2-Methyl-2-(2-methyl-4-{2-[2-(4-trifluoromethylphenyl)-2H-indazol-7-yl]ethylsulfanyl}phenoxy)propionic Acid] | 141 to 143 °C
32 | Cc1cc(OC(C)c2cccc3nn(-c4ccc(C(F)(F)F)cc4)cc23)ccc1OC(C)(C)C(=O)O (racemic) [Example 74, (+/−)-2-Methyl-2-(2-methyl-4-{1-[2-(4-trifluoromethylphenyl)-2H-indazol-4-yl]ethoxy}phenoxy)propionic Acid] | 130 to 132 °C
33 | Cc1cc(OCCc2cccc3cn(-c4ccc(C(F)(F)F)cc4)nc23)ccc1OC(C)(C)C(=O)O [Example 48, 2-Methyl-2-(2-methyl-4-{2-[2-(4-trifluoromethylphenyl)-2H-indazol-7-yl]ethoxy}phenoxy)propionic Acid] | 133 to 135 °C
34 | CC(Sc1ccc2c(CC(=O)O)csc2c1)c1cccc2cn(-c3ccc(C(F)(F)F)cc3)nc12 (racemic) [Example 11, (+/−)-6-{1-[2-(4-Trifluoromethylphenyl)-2H-indazol-7-yl]ethylsulfanyl}benzo[b]thiophen-3-ylacetic Acid] | 76 to 78 °C
